Data taken from article PMC7156724, “Potent BRD4 inhibitor suppresses cancer cell-macrophage interaction” (Nature Communications, 2020).
Where “and” joins values, the source holds several entries; their conditions need not be identical. Identical values can stand only once. Like-named read-outs stand apart in the source and are kept apart here.

Experiments:
[1] = tested on: phosphorylated BRD4 and c-MYC; experiment: Western blot of p-BRD4, BRD4 and c-MYC in solid tumor cell lines; assay type: cell-based, human; details: 24 h
Procedure: Fig. 2 NHWD-870 inhibited BRD4 phosphorylation and c-MYC expression, and suppressed cell growth. a Representative western blot analysis of p-BRD4 (s484/488), BRD4, c-MYC, and GAPDH after treatment of MDA-MB231, SUM159, A2780 ES-2, and H526 cells with JQ-1 or NHWD-870 at the indicated concentrations for 24 h. GAPDH served as the loading control. Selected from three independent experiments. b MTT assays of H526, A2780, ES-2, and MDA-MB231 cells treated with JQ-1 or NHWD-870 at the indicated concentrations for 5 days. Data are presented as mean ± SEM from three independent experiments. c, d Clonogenic assays of H526, A2780, ES-2 and MDA-MB231 cells treated with 250 nM JQ-1 or NHWD-870 for 5 days. Shown are representative images (c) and quantification of colonies (d). […] Shown are representative images (e) and quantification of relative colony sizes (f). Scale bar, 50 μm. Data are presented as mean ± SEM from five independent experiments. p values were calculated using two-tailed, unpaired t tests in this figure. **p < 0.01; ***p < 0.001. Source data are provided as a Source Data file. […]
4. Protein extraction and w estern blot anal ysis. Freshly dissected unfixed tissue was homogenized in lysis buffer. The lysates were centrifuged at 13,000g for 10 minutes at 4°C. Supernatants were collected and determined with a Bradford Protein Assay kit (Bio-Rad, Hercules, CA). The cell lysates were subjected to SDS-PAGE followed by immunoblotting (Immobilon P; Millipore, Milford, MA) with specific antibodies followed by detection using an enhanced chemilumine scence kit (Amersham Life Science, Arlington Heights, IL). […]

[2] = In vivo pharmacokinetics study, mouse
Procedure: 4–6 weeks old female BALB/c nude mice were used for most experiments, with the exception of 6–8 weeks old female C57BL/6 mice were used for B16F10 experiments, and 6–8 weeks old male BALB/c nude mice and SD rats were used for pharmacokinetic experiments. All animals were purchased from Shanghai SIPPR-Bk Lab Animal Co., Ltd. All animals were housed under a regimen of 12 h light/12 h dark cycles and specific pathogen-free conditions. 5×10^6 NCI-H526, ES-2, MDA-MB231, A2780, A375, B16F10, and TMD-8 cells (0.1 ml) were injected subcutaneously into female nude mice. The melanoma patient-derived xenograft model was derived from a human melanoma sample (BRAF, NARS and NF1 wild type, and p53 mutant) removed from a patient in Xiangya Hospital. Surgically removed tumor fragments were implanted subcutaneously into female NSG mice. When the tumors grew to ~1000 mm^3, they were harvested and cryopreserved or immediately re-implanted for expansion or experiments. Mouse body weight and tumor sizes were measured every 3 days. Once the tumors grew to 150–200 mm^3, mice were treated with the compounds as described in the Figures. 1 × 10^6 A2780 cells (1 ml) were injected into the abdominal cavity of nude mice. Ascitic volume and tumor weight were measured by an electronic balance. All the procedures were evaluated and approved by the Institutional Animal Care and Use Committee of Central South University and Yale University.
Supplementary Figure 7. Pharmacokinetic profile of NHWD-870 using mouse and rat models.
(a,b) Plasma concentrations of NHWD-870 in healthy (a) mouse and (b) rat after intravenous (IV, 1.75 mg/kg for mouse and 1 mg/kg for rat) and oral (PO, 5 mg/kg) administration. Values shown on the right panels are mean ± SEM from 3 different animals. (c,d) Mean concentrations of NHWD-870 in the lungs (c) and tumors (d) of H526 xenograft model at the indicated hours after oral administration of 3 mg/kg NHWD-870 and BMS-98615821 on day 21. These mice were administrated the indicated drug daily for 21 days. Data are represented as mean ± SEM of 3 independent experiments. Source data are provided as a Source Data file. […]
9. In vivo pharmacokinetics study. Mouse and SD rat models were used to evaluate pharmacokinetic property of NHWD-870. NHWD-870 was administrated […]
Concentration of drugs in plasma, lung and tumor tissues were measured for the indicated time. […]

[3] = male, BALB/c nude, plasma, IV 1.75 mg/kg
[4] = male, BALB/c nude, plasma, PO 5 mg/kg

SMILES: Cc1nnn(C)c1-c1cnc2c3c4cnn(C)c4ccc3n([C@H](c3ccccc3)C3CCOCC3)c2c1 [NHWD-870]
- effect on phosphorylated BRD4 and c-MYC (western blot) ([1]; 10 nM): depletion of phosphorylated BRD4 and c-MYC
- effect on the stability of BRD4 (western blot) [1]: minimal effects on the stability of BRD4
- AUCExtrap ([2]; IV 1.75 mg/kg): 3.87±2.125%
- T1/2 ([2]; IV 1.75 mg/kg, 1.75 mg/kg): 1.7 h
- Plasma concentration ([2]; IV 1.75 mg/kg, 5 min, individual mice, 1.75 mg/kg): 547 ng/mL and 518 ng/mL
- Plasma concentration ([2]; IV 1.75 mg/kg, 0.25 h, individual mice, 1.75 mg/kg): 431 ng/mL and 362 ng/mL
- Plasma concentration ([2]; IV 1.75 mg/kg, 0.5 h, individual mice, 1.75 mg/kg): 399 ng/mL and 272 ng/mL
- Plasma concentration ([2]; IV 1.75 mg/kg, 1 h, individual mice, 1.75 mg/kg): 295 ng/mL and 262 ng/mL
- Plasma concentration ([2]; IV 1.75 mg/kg, 2 h, individual mice, 1.75 mg/kg): 281 ng/mL and 264 ng/mL
- Plasma concentration ([2]; IV 1.75 mg/kg, 4 h, individual mice, 1.75 mg/kg): 215 ng/mL and 197 ng/mL
- Plasma concentration ([2]; IV 1.75 mg/kg, 8 h, individual mice, 1.75 mg/kg): 41.2 ng/mL and 70.8 ng/mL
- Plasma concentration ([2]; IV 1.75 mg/kg, 24 h, individual mice, 1.75 mg/kg): 0.876 ng/mL and 1.36 ng/mL
- AUCExtrap ([2]; PO 5 mg/kg): 3.04±0.685%
- F (%), oral bioavailability ([2]; PO 5 mg/kg, 5 mg/kg): 70%
- Plasma concentration ([2]; PO 5 mg/kg, 0.25 h, individual mice, 5 mg/kg): 515 ng/mL and 150 ng/mL and 133 ng/mL
- Plasma concentration ([2]; PO 5 mg/kg, 0.5 h, individual mice, 5 mg/kg): 630 ng/mL and 247 ng/mL and 269 ng/mL
- Plasma concentration ([2]; PO 5 mg/kg, 1 h, individual mice, 5 mg/kg): 688 ng/mL and 321 ng/mL and 337 ng/mL
- Plasma concentration ([2]; PO 5 mg/kg, 2 h, individual mice, 5 mg/kg): 593 ng/mL and 414 ng/mL
- Plasma concentration ([2]; PO 5 mg/kg, 4 h, individual mice, 5 mg/kg): 308 ng/mL and 354 ng/mL
- Plasma concentration ([2]; PO 5 mg/kg, 6 h, individual mice, 5 mg/kg): 62.6 ng/mL and 255 ng/mL and 189 ng/mL
- Plasma concentration ([2]; PO 5 mg/kg, 8 h, individual mice, 5 mg/kg): 37.2 ng/mL and 209 ng/mL and 111 ng/mL
- Plasma concentration ([2]; PO 5 mg/kg, 24 h, individual mice, 5 mg/kg): 0.953 ng/mL
- AUC(0-inf) [2, 3]: 993 ± 280 ng·h/mL
- AUC(0-t) [2, 3]: 939 ± 242 ng·h/mL
- C0 [2, 3]: 630 ± 70.5 ng/mL
- MRT inf [2, 3]: 2.22 ± 0.42 h
- clearance [2, 3]: 35 ± 7.45 mL/min/kg
- Vd ([2]; male, BALB/c nude, plasma, IV 1.75 mg/kg, read-out: Vdss): 4.17 ± 0.42 L/kg
- AUC(0-inf) [2, 4]: 2010 ± 165 ng·h/mL
- AUC(0-t) [2, 4]: 1950 ± 172 ng·h/mL
- Cmax [2, 4]: 467 ± 74 ng/mL
- MRT inf [2, 4]: 3.16 ± 0.24 h
- Tmax [2, 4]: 1.33 ± 0.29 h
- concentration at 24 h ([2]; male, BALB/c nude, plasma, PO 5 mg/kg, 24 h, individual mice, read-out: Plasma concentration): 1.94 ng/mL
- half-life ([2]; male, BALB/c nude, plasma, iv, 1.75 mg/kg, IV 1.75 mg/kg): 104 ± 19.5 min
- concentration at 5 min ([2]; male, BALB/c nude, plasma, iv, 1.75 mg/kg, IV 1.75 mg/kg, 5 min, individual mice, read-out: Plasma concentration): 614 ng/mL
- concentration at 5 min ([2]; male, BALB/c nude, plasma, iv, 1.75 mg/kg, IV 1.75 mg/kg, 5 min, mean of 3 mice, read-out: Plasma concentration, Mean): 560 ng/mL
- concentration at 0.25 h ([2]; male, BALB/c nude, plasma, iv, 1.75 mg/kg, IV 1.75 mg/kg, 0.25 h, individual mice, read-out: Plasma concentration): 491 ng/mL
- concentration at 0.25 h ([2]; male, BALB/c nude, plasma, iv, 1.75 mg/kg, IV 1.75 mg/kg, 0.25 h, mean of 3 mice, read-out: Plasma concentration, Mean): 428 ng/mL
- concentration at 0.5 h ([2]; male, BALB/c nude, plasma, iv, 1.75 mg/kg, IV 1.75 mg/kg, 0.5 h, individual mice, read-out: Plasma concentration): 388 ng/mL
- concentration at 0.5 h ([2]; male, BALB/c nude, plasma, iv, 1.75 mg/kg, IV 1.75 mg/kg, 0.5 h, mean of 3 mice, read-out: Plasma concentration, Mean): 353 ng/mL
- concentration at 1 h ([2]; male, BALB/c nude, plasma, iv, 1.75 mg/kg, IV 1.75 mg/kg, 1 h, individual mice, read-out: Plasma concentration): 417 ng/mL
- concentration at 1 h ([2]; male, BALB/c nude, plasma, iv, 1.75 mg/kg, IV 1.75 mg/kg, 1 h, mean of 3 mice, read-out: Plasma concentration, Mean): 325 ng/mL
- concentration at 2 h ([2]; male, BALB/c nude, plasma, iv, 1.75 mg/kg, IV 1.75 mg/kg, 2 h, individual mice, read-out: Plasma concentration): 362 ng/mL
- concentration at 2 h ([2]; male, BALB/c nude, plasma, iv, 1.75 mg/kg, IV 1.75 mg/kg, 2 h, mean of 3 mice, read-out: Plasma concentration, Mean): 302 ng/mL
- concentration at 4 h ([2]; male, BALB/c nude, plasma, iv, 1.75 mg/kg, IV 1.75 mg/kg, 4 h, individual mice, read-out: Plasma concentration): 190 ng/mL
- concentration at 4 h ([2]; male, BALB/c nude, plasma, iv, 1.75 mg/kg, IV 1.75 mg/kg, 4 h, mean of 3 mice, read-out: Plasma concentration, Mean): 201 ng/mL
- concentration at 8 h ([2]; male, BALB/c nude, plasma, iv, 1.75 mg/kg, IV 1.75 mg/kg, 8 h, individual mice, read-out: Plasma concentration): 50.2 ng/mL
- concentration at 8 h ([2]; male, BALB/c nude, plasma, iv, 1.75 mg/kg, IV 1.75 mg/kg, 8 h, mean of 3 mice, read-out: Plasma concentration, Mean): 54.1 ng/mL
- concentration at 24 h ([2]; male, BALB/c nude, plasma, iv, 1.75 mg/kg, IV 1.75 mg/kg, 24 h, individual mice, read-out: Plasma concentration): 0.937 ng/mL
- concentration at 24 h ([2]; male, BALB/c nude, plasma, iv, 1.75 mg/kg, IV 1.75 mg/kg, 24 h, mean of 3 mice, read-out: Plasma concentration, Mean): 1.06 ng/mL
- half-life ([2]; male, BALB/c nude, plasma, po, 5 mg/kg, PO 5 mg/kg): 77.4 ± 3.3 min
- concentration at 0.25 h ([2]; male, BALB/c nude, plasma, po, 5 mg/kg, PO 5 mg/kg, 0.25 h, mean of 3 mice, read-out: Plasma concentration, Mean): 266 ng/mL
- concentration at 0.5 h ([2]; male, BALB/c nude, plasma, po, 5 mg/kg, PO 5 mg/kg, 0.5 h, mean of 3 mice, read-out: Plasma concentration, Mean): 382 ng/mL
- concentration at 1 h ([2]; male, BALB/c nude, plasma, po, 5 mg/kg, PO 5 mg/kg, 1 h, mean of 3 mice, read-out: Plasma concentration, Mean): 449 ng/mL
- concentration at 2 h ([2]; male, BALB/c nude, plasma, po, 5 mg/kg, PO 5 mg/kg, 2 h, individual mice, read-out: Plasma concentration): 528 ng/mL
- concentration at 2 h ([2]; male, BALB/c nude, plasma, po, 5 mg/kg, PO 5 mg/kg, 2 h, mean of 3 mice, read-out: Plasma concentration, Mean): 512 ng/mL
- concentration at 4 h ([2]; male, BALB/c nude, plasma, po, 5 mg/kg, PO 5 mg/kg, 4 h, individual mice, read-out: Plasma concentration): 299 ng/mL
- concentration at 4 h ([2]; male, BALB/c nude, plasma, po, 5 mg/kg, PO 5 mg/kg, 4 h, mean of 3 mice, read-out: Plasma concentration, Mean): 320 ng/mL
- concentration at 6 h ([2]; male, BALB/c nude, plasma, po, 5 mg/kg, PO 5 mg/kg, 6 h, mean of 3 mice): 169 ng/mL
- concentration at 8 h ([2]; male, BALB/c nude, plasma, po, 5 mg/kg, PO 5 mg/kg, 8 h, mean of 3 mice, read-out: Plasma concentration, Mean): 119 ng/mL
- concentration at 24 h ([2]; male, BALB/c nude, plasma, po, 5 mg/kg, PO 5 mg/kg, 24 h, individual mice, read-out: Plasma concentration): 1.06 ng/mL
- concentration at 24 h ([2]; male, BALB/c nude, plasma, po, 5 mg/kg, PO 5 mg/kg, 24 h, mean of 3 mice, read-out: Plasma concentration, Mean): 1.32 ng/mL
- bioavailability ([2]; male, BALB/c nude, plasma, po, 5 mg/kg, PO 5 mg/kg, read-out: F (%), oral bioavailability): 70.8 ± 5.8%
